In ChEMBL document CHEMBL1121730, “beta-Adrenergic blocking agents. alpha- and gamma-methyl(aryloxy)propanolamines” (J Med Chem, 1981):

What follows are molecules tested against Adrenergic receptor beta (Rattus norvegicus, UniProt P18090+P10608+P26255) (assay: Binding affinity against Beta adrenergic receptor in C6-2B astrocytoma cells, using [125I]-iodohydroxybenzylpindolol-benzylpindolol([125I]-HYP)).
Assay type: cell-based

Compound	Kd
CC(C)NCC(O)C(C)Oc1cccc2ccccc12 (stereo not given)	40 nM
CCc1ccc(OC(C)C(O)CNC(C)(C)C)cc1 (stereo not given)	2000 nM
C=CCc1ccccc1OC(C)C(O)CNC(C)C (stereo not given)	50 nM
Cc1ccc(OC(C)C(O)CNC(C)C)cc1C (stereo not given)	200 nM
CC(Oc1ccccc1)C(O)CNC(C)(C)C (stereo not given)	300 nM
CCc1ccc(OC(C)C(O)CNC(C)C)cc1 (stereo not given)	2000 nM
CC(Oc1cccc2ccccc12)C(O)CNC(C)(C)C (stereo not given)	5 nM
C=CCc1ccccc1OC(C)C(O)CNC(C)(C)C (stereo not given)	15 nM
Cc1ccc(OC(C)C(O)CNC(C)(C)C)cc1C (stereo not given)	200 nM
CC(C)NCC(O)C(C)Oc1ccc(Cl)c(Cl)c1 (stereo not given)	500 nM
